According to patent publication US20040191115A1 (priority 2003, published 2004):
“And” between values parts separate entries of the source, which are not always exact repeats. Equal entries are not always repeated. Where two headings read alike, the source gives them in different places.

Tested on: bacillus atrophaeus spores
Details: 2.59 percent H2O2, slow speed, without cartons; for average count of colony forming units for the time period / log of average count for the time period: mean of samples
Protocol: Studies were conducted to determine the microbial eradication on mandrels 34 that were subjected to vaporized sterilant introduced at the heaters 40. […] The efficacy of the mandrel sterilization was studied for both the mandrel caps 35 and the mandrel side tubes 37 (see FIG. 3).
Each of the studies was further carried out using a testing media of bacillus atrophaeus spores for inoculating the mandrels. The mandrels were inoculated by spraying, using an aerating spray bottle having a solution with a concentration of about 7 log bacillus spores. The mandrels were then allowed to air dry. Controls were swabbed using cotton swabs to assure that the mandrels were properly inoculated. Following the machine operating period of the test, the mandrels were swabbed and the bacillus spores transferred to an agar media for incubation of the spores (at 32° C. for 48 hours) and subsequent recovery.
The data was collected by taking swab samples at the mandrel cap 35 (represented by C in the Table) and on the mandrel side tubes 37 (represented by T in the Table).

[1] = time 0 min, swab site C (mandrel cap)
[2] = time 0 min, swab site T (mandrel side tubes)
[3] = time 15 min, swab site C (mandrel cap)
[4] = time 15 min, swab site T (mandrel side tubes)
[5] = time 30 min, swab site C (mandrel cap)
[6] = time 30 min, swab site T (mandrel side tubes)
[7] = time 45 min, swab site C (mandrel cap)
[8] = time 45 min, swab site T (mandrel side tubes)
[9] = time 60 min, swab site C (mandrel cap)
[10] = time 60 min, swab site T (mandrel side tubes)

## OO [hydrogen peroxide]
Time 0 min, cap
  average count of colony forming units for the time period: 4.82E+05 CFU/mandrel
  log of average count for the time period: 5.68 log
Time 0 min, side tubes
  average count of colony forming units for the time period: 6.67E+05 CFU/mandrel
  log of average count for the time period: 5.82 log
[1]
  Average CFU/mL: 1.19E+05 CFU/mL and 1.23E+05 CFU/mL
  Average CFU/mandrel: 4.74E+05 CFU/mandrel and 4.90E+05 CFU/mandrel
  Log (of Average CFU/mandrel): 5.68 Log and 5.69 Log
  Result 1 CFU/mL: 1.24E+05 CFU/mL and 1.19E+05 CFU/mL
  Result #2 CFU/mL: 1.13E+05 CFU/mL and 1.26E+05 CFU/mL
[2]
  Log (of Average CFU/mandrel): 5.95 Log and 5.65 Log
  Result #2 CFU/mL: 2.09E+05 CFU/mL and 1.17E+05 CFU/mL
Time 15 min, cap
  average count of colony forming units for the time period: 3.47E+05 CFU/mandrel
  log of average count for the time period: 5.54 log
Time 15 min, side tubes
  average count of colony forming units for the time period: 4.02E+05 CFU/mandrel
  log of average count for the time period: 5.60 log
[3]
  Average CFU/mandrel: 2.62E+05 CFU/mandrel and 4.32E+05 CFU/mandrel
  Log (of Average CFU/mandrel): 5.42 Log and 5.64 Log
[4]
  Average CFU/mL: 1.01E+05 CFU/mL and 1.00E+05 CFU/mL
  Average CFU/mandrel: 4.04E+05 CFU/mandrel and 4.00E+05 CFU/mandrel
  Log (of Average CFU/mandrel): 5.61 Log and 5.60 Log
  Result 1 CFU/mL: 1.03E+05 CFU/mL and 1.06E+05 CFU/mL
  Result #2 CFU/mL: 9.90E+04 CFU/mL and 9.40E+04 CFU/mL
Time 15 min relative to time zero, cap
  Log Red. (Avg): 0.14 Log
Time 15 min relative to time zero, side tubes
  Log Red. (Avg): 0.22 Log
Time 30 min, cap
  average count of colony forming units for the time period: 3.82E+05 CFU/mandrel
  log of average count for the time period: 5.58 log
Time 30 min, side tubes
  average count of colony forming units for the time period: 4.34E+05 CFU/mandrel
  log of average count for the time period: 5.64 log
[5]
  Average CFU/mandrel: 2.66E+05 CFU/mandrel and 4.98E+05 CFU/mandrel
  Log (of Average CFU/mandrel): 5.42 Log and 5.70 Log
[6]
  Average CFU/mandrel: 4.74E+05 CFU/mandrel and 3.94E+05 CFU/mandrel
  Log (of Average CFU/mandrel): 5.68 Log and 5.60 Log
  Result #2 CFU/mL: 1.15E+05 CFU/mL and 1.08E+05 CFU/mL
Time 30 min relative to time zero, cap
  Log Red. (Avg): 0.10 Log
Time 30 min relative to time zero, side tubes
  Log Red. (Avg): 0.19 Log
Time 45 min, cap
  average count of colony forming units for the time period: 6.31E+05 CFU/mandrel
  log of average count for the time period: 5.80 log
Time 45 min, side tubes
  average count of colony forming units for the time period: 8.04E+05 CFU/mandrel
  log of average count for the time period: 5.91 log
[7]
  Average CFU/mL: 1.43E+05 CFU/mL and 1.73E+05 CFU/mL
  Average CFU/mandrel: 5.72E+05 CFU/mandrel and 6.90E+05 CFU/mandrel
  Log (of Average CFU/mandrel): 5.76 Log and 5.84 Log
  Result 1 CFU/mL: 1.51E+05 CFU/mL and 1.64E+05 CFU/mL
  Result #2 CFU/mL: 1.35E+05 CFU/mL and 1.81E+05 CFU/mL
[8]
  Average CFU/mL: 1.51E+05 CFU/mL and 2.52E+05 CFU/mL
  Log (of Average CFU/mandrel): 5.78 Log and 6.00 Log
  Result 1 CFU/mL: 1.67E+05 CFU/mL and 2.49E+05 CFU/mL
  Result #2 CFU/mL: 1.34E+05 CFU/mL and 2.54E+05 CFU/mL
Time 45 min relative to time zero, cap
  Log Red. (Avg): −0.12 Log
Time 45 min relative to time zero, side tubes
  Log Red. (Avg): −0.08 Log
Time 60 min, cap
  average count of colony forming units for the time period: 3.24E+05 CFU/mandrel
  log of average count for the time period: 5.51 log
Time 60 min, side tubes
  average count of colony forming units for the time period: 6.01E+05 CFU/mandrel
  log of average count for the time period: 5.78 log
[9]
  Average CFU/mL: 7.35E+04 CFU/mL and 8.85E+04 CFU/mL
  Average CFU/mandrel: 2.94E+05 CFU/mandrel and 3.54E+05 CFU/mandrel
  Log (of Average CFU/mandrel): 5.47 Log and 5.55 Log
  Result 1 CFU/mL: 6.30E+04 CFU/mL and 8.50E+04 CFU/mL
  Result #2 CFU/mL: 8.40E+04 CFU/mL and 9.20E+04 CFU/mL
[10]
  Average CFU/mL: 1.87E+05 CFU/mL and 1.14E+05 CFU/mL
  Average CFU/mandrel: 7.46E+05 CFU/mandrel and 4.56E+05 CFU/mandrel
  Log (of Average CFU/mandrel): 5.87 Log and 5.66 Log
  Result 1 CFU/mL: 2.10E+05 CFU/mL and 1.20E+05 CFU/mL
  Result #2 CFU/mL: 1.63E+05 CFU/mL and 1.08E+05 CFU/mL
Time 60 min relative to time zero, cap
  Log Red. (Avg): 0.17 Log
Time 60 min relative to time zero, side tubes
  Log Red. (Avg): 0.05 Log
